Assay results reported in patent publication US9995734B2, “Human T cell line assay for evaluating the immunologic identity of glatiramer acetate preparations” (Mylan Inc., priority 2013, dated 2018).

Key:
[1] = test system: Donor 3 GMA T-Cell Lines; test: ATP proliferation assay (CellTiter Glo), Donor 3 GMA T-cell lines, incl. reactivity to non-canonical GA peptides; type: cell-based, human; details: for Mean, ATP proliferation assay: 10 μg/mL
[2] = test system: Donor 3 COP T-Cell Lines; test: ATP proliferation assay (CellTiter Glo), Donor 3 COP T-cell lines, incl. reactivity to non-canonical GA peptides; type: cell-based, human; details: for Reactivity (proliferation), Mean: Day 54 of culture; for Mean, ATP proliferation assay: 10 μg/mL

Sequence: FFKNIVTPRTPPPSQGK [MBP]
- Mean, ATP proliferation assay ([1]; T-cell line 165-B2G, Day 40): 3320
- Proliferation (luminescent ATP assay), Mean ([1]; T-cell line 165-B5G, 10 μg/mL antigen, Day 55 of culturing, No Antigen Value 846): 871 RLU
- Mean, ATP proliferation assay ([1]; T-cell line 165-B5G, Day 40): 3398
- Mean, ATP proliferation assay ([1]; T-cell line 165-C4G, Day 40): 3482
- Proliferation (luminescent ATP assay), Mean ([1]; T-cell line 165-C5G, 10 μg/mL antigen, autologous B-LCL): 469 RLU
- Mean, ATP proliferation assay ([1]; T-cell line 165-C5G, Day 40): 3401
- Mean, ATP proliferation assay ([1]; T-cell line 165-C8G, tested with the Donor 3 COP lines of Table 25): 5279 RLU
- Mean, ATP proliferation assay ([1]; T-cell line 165-D8G, Day 40): 6909
- Proliferation (luminescent ATP assay), Mean ([1]; T-cell line 165-E7G, 10 μg/mL antigen, autologous B-LCL, Day 55): 2116 RLU
- Mean, ATP proliferation assay ([1]; T-cell line 165-E7G, Day 40): 2989
- Proliferation (luminescent ATP assay), Mean ([1]; T-cell line 165-E9G, 1 μg/mL antigen, Day 50 of culturing, No Antigen Value 1742): 1527 RLU
- Proliferation (luminescent ATP assay), Mean ([1]; T-cell line 165-E9G, 3 μg/mL antigen, Day 50 of culturing, No Antigen Value 1742): 1428 RLU
- Proliferation (luminescent ATP assay), Mean ([1]; T-cell line 165-E9G, 10 μg/mL antigen, autologous B-LCL): 163 RLU
- Mean, ATP proliferation assay ([1]; T-cell line 165-E9G, Day 40): 2892
- Proliferation (luminescent ATP assay), Mean ([1]; T-cell line 165-E9G, 30 μg/mL antigen, Day 50 of culturing, No Antigen Value 1742): 1208 RLU
- Proliferation (luminescent ATP assay), Mean ([1]; T-cell line 165-E9G, 10 μpg/mL antigen, Day 50 of culturing, No Antigen Value 1742): 1247 RLU
- Mean, ATP proliferation assay ([1]; T-cell line 165-F2G, Day 40): 2345
- Proliferation (luminescent ATP assay), Mean ([1]; T-cell line 165-F5G, 10 μg/mL antigen, autologous B-LCL): 138 RLU
- Mean, ATP proliferation assay ([1]; T-cell line 165-F5G, Day 40): 2904
- Mean, ATP proliferation assay ([1]; T-cell line 165-F8G, Day 40): 3366
- Proliferation (luminescent ATP assay), Mean ([1]; T-cell line 165-F10G, 10 μg/mL antigen, autologous B-LCL): 831 RLU
- Mean, ATP proliferation assay ([1]; T-cell line 165-F10G, Day 40): 3585
- Proliferation (luminescent ATP assay), Mean ([1]; T-cell line 165-H11G, 10 μg/mL antigen, autologous B-LCL): 323 RLU
- Mean, ATP proliferation assay ([1]; T-cell line 165-H11G, Day 40): 2925
- Reactivity (proliferation), Mean ([2]; T-cell line 165-B6C, 3 μg/mL antigen, No Antigen 2358): 2205 RLU
- Reactivity (proliferation), Mean ([2]; T-cell line 165-B6C, 10 μg/mL antigen, No Antigen 2358): 2268 RLU
- Mean, ATP proliferation assay ([2]; T-cell line 165-B6C, Day 46, after 3 days): 3216 RLU
- Reactivity (proliferation), Mean ([2]; T-cell line 165-B6C, 100 μg/mL antigen, No Antigen 2358): 2201 RLU
- Reactivity (proliferation), Mean ([2]; T-cell line 165-B10C, 3 μg/mL antigen, No Antigen 2234): 2176 RLU
- Reactivity (proliferation), Mean ([2]; T-cell line 165-B10C, 10 μg/mL antigen, No Antigen 2234): 2320 RLU
- Mean, ATP proliferation assay ([2]; T-cell line 165-B10C, Day 46, after 3 days): 3003 RLU
- Reactivity (proliferation), Mean ([2]; T-cell line 165-B10C, 100 μg/mL antigen, No Antigen 2234): 2272 RLU
- Mean, ATP proliferation assay ([2]; T-cell line 165-C4C, Day 39): 1631
- Proliferation (luminescent ATP assay), Mean ([2]; T-cell line 165-C7C, 10 μg/mL antigen, autologous B-LCL): 278 RLU
- Mean, ATP proliferation assay ([2]; T-cell line 165-C7C, Day 39): 1673
- Mean, ATP proliferation assay ([2]; T-cell line 165-D2C, Day 39): 1927
- Reactivity (proliferation), Mean ([2]; T-cell line 165-D3C, 3 μg/mL antigen, No Antigen 8319): 8037 RLU
- Reactivity (proliferation), Mean ([2]; T-cell line 165-D3C, 10 μg/mL antigen, No Antigen 8319): 8656 RLU
- Mean, ATP proliferation assay ([2]; T-cell line 165-D3C, Day 46, after 3 days): 15482 RLU
- Reactivity (proliferation), Mean ([2]; T-cell line 165-D3C, 100 μg/mL antigen, No Antigen 8319): 8647 RLU
- Reactivity (proliferation), Mean ([2]; T-cell line 165-D11C, 3 μg/mL antigen, No Antigen 4571): 4348 RLU
- Reactivity (proliferation), Mean ([2]; T-cell line 165-D11C, 10 μg/mL antigen, No Antigen 4571): 4301 RLU
- Mean, ATP proliferation assay ([2]; T-cell line 165-D11C, Day 46, after 3 days): 8406 RLU
- Reactivity (proliferation), Mean ([2]; T-cell line 165-D11C, 100 μg/mL antigen, No Antigen 4571): 4020 RLU
- Reactivity (proliferation), Mean ([2]; T-cell line 165-E3C, 3 μg/mL antigen, No Antigen 2797): 2898 RLU
- Reactivity (proliferation), Mean ([2]; T-cell line 165-E3C, 10 μg/mL antigen, No Antigen 2797): 2658 RLU
- Mean, ATP proliferation assay ([2]; T-cell line 165-E3C, Day 46, after 3 days): 7662 RLU
- Reactivity (proliferation), Mean ([2]; T-cell line 165-E3C, 100 μg/mL antigen, No Antigen 2797): 2582 RLU
- Reactivity (proliferation), Mean ([2]; T-cell line 165-F3C, 3 μg/mL antigen, No Antigen 3150): 3369 RLU
- Reactivity (proliferation), Mean ([2]; T-cell line 165-F3C, 10 μg/mL antigen, No Antigen 3150): 3115 RLU
- Mean, ATP proliferation assay ([2]; T-cell line 165-F3C, Day 46, after 3 days): 9849 RLU
- Reactivity (proliferation), Mean ([2]; T-cell line 165-F3C, 100 μg/mL antigen, No Antigen 3150): 3017 RLU
- Reactivity (proliferation), Mean ([2]; T-cell line 165-F6C, 3 μg/mL antigen, No Antigen 2189): 1960 RLU
- Reactivity (proliferation), Mean ([2]; T-cell line 165-F6C, 10 μg/mL antigen, No Antigen 2189): 1977 RLU
- Mean, ATP proliferation assay ([2]; T-cell line 165-F6C, Day 46, after 3 days): 2214 RLU
- Reactivity (proliferation), Mean ([2]; T-cell line 165-F6C, 100 μg/mL antigen, No Antigen 2189): 3672 RLU
